Measurements reported in ChEMBL document CHEMBL3988442, “University of Dundee, Small-Polar-MMV Screening Library” (2021).
Several values for one entry are separate records, joined by “and”; a condition that tells them apart may be missing. Equal values may be shown once.

What was measured:
[1] = molecular target: Polyketide synthase Pks13 (Mycobacterium tuberculosis (strain ATCC 25618 / H37Rv), UniProt I6X8D2); assay: Mycobacterium tuberculosis Polyketide synthase 13 Thioesterase (PKS13); format: functional
[2] = molecular target: Lysine--tRNA ligase (Plasmodium falciparum (isolate 3D7), UniProt Q8IDJ8); assay: Pf-KRS-1 (Lysyl-RNA Synthetase-1, KRS-1, cytosolic KRS) from Plasmodium falciparum. Inhibitor assay, 384 well plate, luminescence read.; format: functional
[3] = molecular target: T1, Histidine--tRNA ligase (Leishmania infantum, UniProt A4I591); assay: Leishmania infantum Histidine tRNA synthetase (LdHisRS); format: functional
T1 sequence (A4I591 whole entry): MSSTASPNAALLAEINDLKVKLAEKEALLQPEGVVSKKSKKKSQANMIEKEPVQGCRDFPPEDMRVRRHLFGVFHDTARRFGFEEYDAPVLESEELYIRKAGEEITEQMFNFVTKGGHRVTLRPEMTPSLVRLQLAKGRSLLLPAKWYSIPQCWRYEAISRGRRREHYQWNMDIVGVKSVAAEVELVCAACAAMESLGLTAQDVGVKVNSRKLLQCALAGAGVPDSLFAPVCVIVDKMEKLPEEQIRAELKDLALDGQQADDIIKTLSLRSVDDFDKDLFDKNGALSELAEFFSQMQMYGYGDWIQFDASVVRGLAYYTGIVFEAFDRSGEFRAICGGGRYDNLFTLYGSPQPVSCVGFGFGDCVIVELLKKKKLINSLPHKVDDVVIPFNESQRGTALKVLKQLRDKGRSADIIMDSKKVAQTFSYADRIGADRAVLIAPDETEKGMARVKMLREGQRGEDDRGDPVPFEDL

[4] = In vitro enzyme assay to detect hydrolysis of chlorophenol red-beta-D-[…] directly proportional to the number of Toxoplasma stably expressing beta-galactosidase; format: functional, organism-based, Toxoplasma gondii; conditions: for IC50: Toxoplasma gondii
[5] = system: Plasmodium falciparum; assay: Calibr Malaria Delayed Death Assay SOP; format: functional, organism-based
[6] = microbe, parasite or virus in culture; conditions: Mycobacterium tuberculosis, 96 h, read-out: pIC50 (converted)
[7] = microbe, parasite or virus in culture; conditions: Mycobacterium tuberculosis, 72 h, read-out: pIC50 (converted)
[8] = molecular target: T2, Coenzyme A biosynthesis bifunctional protein CoaBC (Mycobacterium tuberculosis (strain ATCC 25618 / H37Rv), UniProt P9WNZ1); assay: Biomol Green assay for MtCoaBC inhibitor, OD650 read; format: functional
T2 sequence (P9WNZ1 whole entry): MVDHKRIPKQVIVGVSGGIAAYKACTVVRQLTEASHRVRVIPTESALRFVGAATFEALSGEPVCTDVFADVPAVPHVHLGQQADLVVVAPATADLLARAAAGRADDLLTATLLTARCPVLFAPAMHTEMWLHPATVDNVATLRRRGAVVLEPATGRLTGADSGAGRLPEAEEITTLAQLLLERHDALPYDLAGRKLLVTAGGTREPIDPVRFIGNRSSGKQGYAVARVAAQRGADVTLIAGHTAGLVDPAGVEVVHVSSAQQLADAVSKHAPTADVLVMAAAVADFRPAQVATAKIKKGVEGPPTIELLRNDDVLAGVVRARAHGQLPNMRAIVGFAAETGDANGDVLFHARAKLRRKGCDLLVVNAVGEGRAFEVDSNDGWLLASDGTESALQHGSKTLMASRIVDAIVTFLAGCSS

[9] = molecular target: Tryptophan--tRNA ligase (Mycobacterium tuberculosis (strain ATCC 25618 / H37Rv), UniProt P9WFT3); assay: Biochemical assay for Mt-TrpRS; format: functional
[10] = system: Leishmania donovani; assay: Leishmania intramacrophage assay; format: functional, organism-based; conditions: Leishmania donovani
[11] = molecular target: ClpP1P2 (Mycobacterium tuberculosis (strain ATCC 25618 / H37Rv), UniProt P9WPC3+P9WPC5); assay: in vitro assay to detect presence of AMC directly proportional to the activity of ClpP1P2. GHDDI collaboration.; format: functional
[12] = system: Schistosoma mansoni; assay: High throughput screening of compounds against Schistosoma mansoni motility; format: functional; design: dose or concentration left out as unconfirmed

Sequence of Lysine--tRNA ligase (Q8IDJ8 whole entry): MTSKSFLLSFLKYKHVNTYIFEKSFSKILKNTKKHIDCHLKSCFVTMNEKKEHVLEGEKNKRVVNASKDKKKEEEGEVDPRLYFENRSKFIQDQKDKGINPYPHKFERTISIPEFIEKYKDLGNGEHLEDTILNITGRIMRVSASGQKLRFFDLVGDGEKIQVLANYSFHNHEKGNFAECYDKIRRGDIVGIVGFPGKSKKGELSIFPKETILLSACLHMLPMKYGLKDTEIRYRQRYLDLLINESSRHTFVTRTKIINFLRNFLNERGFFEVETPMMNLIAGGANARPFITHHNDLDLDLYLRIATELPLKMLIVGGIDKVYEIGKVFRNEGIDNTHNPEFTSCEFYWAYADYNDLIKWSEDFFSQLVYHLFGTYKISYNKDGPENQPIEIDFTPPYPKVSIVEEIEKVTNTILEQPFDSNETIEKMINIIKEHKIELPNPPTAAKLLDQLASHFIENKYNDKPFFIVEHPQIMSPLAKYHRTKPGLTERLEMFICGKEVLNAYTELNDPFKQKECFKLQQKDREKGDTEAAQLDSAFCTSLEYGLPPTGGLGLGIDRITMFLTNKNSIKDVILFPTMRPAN
Sequence of Polyketide synthase Pks13 (I6X8D2 whole entry): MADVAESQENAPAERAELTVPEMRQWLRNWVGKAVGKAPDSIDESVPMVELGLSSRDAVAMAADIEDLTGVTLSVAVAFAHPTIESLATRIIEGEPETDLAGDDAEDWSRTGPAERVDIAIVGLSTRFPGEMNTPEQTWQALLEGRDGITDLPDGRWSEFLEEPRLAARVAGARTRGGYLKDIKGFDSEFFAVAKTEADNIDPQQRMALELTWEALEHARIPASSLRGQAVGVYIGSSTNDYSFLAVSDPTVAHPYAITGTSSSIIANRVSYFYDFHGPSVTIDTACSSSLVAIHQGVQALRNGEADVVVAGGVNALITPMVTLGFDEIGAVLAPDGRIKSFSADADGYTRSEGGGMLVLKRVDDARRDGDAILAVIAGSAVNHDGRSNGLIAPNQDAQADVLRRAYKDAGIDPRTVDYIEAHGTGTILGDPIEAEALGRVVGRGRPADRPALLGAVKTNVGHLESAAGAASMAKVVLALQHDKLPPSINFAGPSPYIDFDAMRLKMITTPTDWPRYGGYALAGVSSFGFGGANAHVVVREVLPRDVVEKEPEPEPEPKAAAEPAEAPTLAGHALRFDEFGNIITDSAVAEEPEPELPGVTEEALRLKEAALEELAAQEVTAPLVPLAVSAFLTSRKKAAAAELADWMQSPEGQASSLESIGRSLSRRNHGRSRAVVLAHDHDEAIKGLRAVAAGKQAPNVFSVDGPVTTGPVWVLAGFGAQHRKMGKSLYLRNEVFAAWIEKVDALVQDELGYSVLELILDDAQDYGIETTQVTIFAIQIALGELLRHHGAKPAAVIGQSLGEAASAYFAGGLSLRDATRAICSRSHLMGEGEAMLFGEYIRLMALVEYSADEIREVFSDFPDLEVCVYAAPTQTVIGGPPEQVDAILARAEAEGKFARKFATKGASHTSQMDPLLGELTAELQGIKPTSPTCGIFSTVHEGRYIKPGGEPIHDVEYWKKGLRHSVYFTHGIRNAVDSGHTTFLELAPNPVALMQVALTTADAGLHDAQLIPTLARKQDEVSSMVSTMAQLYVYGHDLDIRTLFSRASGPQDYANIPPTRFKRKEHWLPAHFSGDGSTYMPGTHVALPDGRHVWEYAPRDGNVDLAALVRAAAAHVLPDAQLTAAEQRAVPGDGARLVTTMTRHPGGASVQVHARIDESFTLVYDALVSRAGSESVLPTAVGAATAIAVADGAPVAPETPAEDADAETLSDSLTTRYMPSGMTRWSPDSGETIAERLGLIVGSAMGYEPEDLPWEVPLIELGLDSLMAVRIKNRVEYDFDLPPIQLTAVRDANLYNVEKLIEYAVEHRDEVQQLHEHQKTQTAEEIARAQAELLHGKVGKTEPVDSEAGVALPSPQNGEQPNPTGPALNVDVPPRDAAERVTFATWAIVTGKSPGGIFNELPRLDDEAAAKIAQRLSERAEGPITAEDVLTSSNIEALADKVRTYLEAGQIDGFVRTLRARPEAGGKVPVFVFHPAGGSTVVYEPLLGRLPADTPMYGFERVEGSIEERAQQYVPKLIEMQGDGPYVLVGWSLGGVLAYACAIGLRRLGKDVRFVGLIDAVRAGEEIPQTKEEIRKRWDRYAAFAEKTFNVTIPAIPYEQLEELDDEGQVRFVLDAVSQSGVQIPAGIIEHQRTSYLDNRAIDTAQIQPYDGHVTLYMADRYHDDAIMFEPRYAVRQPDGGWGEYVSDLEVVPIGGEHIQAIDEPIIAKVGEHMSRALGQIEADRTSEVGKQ
Sequence of ClpP1P2 (P9WPC5 whole entry): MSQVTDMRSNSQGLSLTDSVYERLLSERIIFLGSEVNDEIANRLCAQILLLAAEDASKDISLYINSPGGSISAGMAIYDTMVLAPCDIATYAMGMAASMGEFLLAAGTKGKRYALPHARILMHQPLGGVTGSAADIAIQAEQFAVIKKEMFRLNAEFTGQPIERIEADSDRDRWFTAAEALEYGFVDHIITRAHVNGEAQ
Sequence of ClpP1P2 (P9WPC3 whole entry): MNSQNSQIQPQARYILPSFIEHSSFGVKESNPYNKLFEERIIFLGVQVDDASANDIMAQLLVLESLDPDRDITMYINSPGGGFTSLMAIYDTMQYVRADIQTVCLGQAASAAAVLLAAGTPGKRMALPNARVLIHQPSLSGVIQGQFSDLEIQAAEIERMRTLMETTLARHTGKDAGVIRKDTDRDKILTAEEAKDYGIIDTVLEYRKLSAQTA
Sequence of Tryptophan--tRNA ligase (P9WFT3 whole entry): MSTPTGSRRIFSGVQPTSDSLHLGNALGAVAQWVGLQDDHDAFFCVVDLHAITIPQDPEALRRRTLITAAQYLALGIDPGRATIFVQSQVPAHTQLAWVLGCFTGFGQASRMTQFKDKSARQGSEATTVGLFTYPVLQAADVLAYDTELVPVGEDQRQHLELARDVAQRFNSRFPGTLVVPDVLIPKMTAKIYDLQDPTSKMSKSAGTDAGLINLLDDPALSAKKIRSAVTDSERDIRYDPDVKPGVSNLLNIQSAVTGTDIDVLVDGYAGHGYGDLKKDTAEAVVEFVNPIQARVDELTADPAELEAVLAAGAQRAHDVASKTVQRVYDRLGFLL

SMILES	IC50 [1]	IC50 [2]	IC50 [3]	other results
CC1(C)Cc2ccccc2-c2nc(NCCCO)[nH]c(=O)c21	28.6 µM and 27.1 µM			
CCC1(C)Cc2ccccc2-c2nc(NCCO)nc(O)c21 (stereo not given)	31.8 µM and 28.8 µM			
c1ccc(CCCN2CC[C@H](c3nnc(-c4ccccc4)o3)C2)cc1	> 100 µM			
Cn1cncc1-c1nnc([C@H]2CCN(Cc3ncc[nH]3)C2)o1	> 100 µM			
COc1ccc2nc(C[C@@H]3C[C@@H](C(C)C)[C@H](CN)C=C3C)[nH]c2n1	> 100 µM			
CN(C)c1ccc(-c2nnc([C@H]3CCN(C4CCCCC4)C3)o2)cc1	> 100 µM			
COc1ccc(-c2cc(C[C@@H]3C[C@H](N(C)C)C3(C)C)no2)cc1	41.5 µM and > 100 µM			
Cc1cccn2c(=O)cc(CSCC(=O)Nc3nnc(C(C)C)s3)nc12	> 100 µM			
CCOC(=O)CNC(=O)NCc1cc(C)n(-c2ccccc2OC)c1C	> 100 µM			
CCC(CC)C(=O)n1ccn(S(=O)(=O)c2ccc(C)cc2)c1=O	20 µM and 19.7 µM			
CC(=O)N1N=C(c2ccco2)OC1C(=O)NCC(C)C (stereo not given)	> 100 µM			
Cc1ccc(C)c(-n2ncc(C(=O)NCC3COC(C)(C)O3)c2N)c1 (stereo not given)	> 100 µM			
CCOCCCNC(=O)c1cn(C(C)(C)C)c2ncccc12	> 100 µM			
CC1=C(C#N)C(=O)N(C)C(=O)/C1=C\C1=Cc2ccccc2OC1		> 50.1 µM	1.12 µM and 1.35 µM and 1.76 µM and 1.15 µM	
Cc1cc2c(N)nc(=O)n(CC(=O)Nc3ccccc3)c2s1	> 100 µM			
CCc1ccc(S(=O)(=O)NCC2CCN(c3cnccn3)CC2)s1	18.4 µM and 29.5 µM			
O=C(Nc1nc2c(s1)CN(S(=O)(=O)C1CC1)CC2)c1cccc(Cl)c1	12.2 µM and 20.2 µM			
O=C(Nc1cnc(N2CCOCC2)nc1)c1ccc(C(F)(F)F)cc1	22.3 µM and 20.4 µM			
Cc1ccnc(OC[C@]23COC[C@H]2CN(C(=O)c2ncccn2)C3)n1	> 100 µM			
O=C1CCCN1Cc1ncn2c1CN(C(=O)NC1CCCC1)CCC2	> 100 µM			
CCn1c(SCC(=O)N2CCCC2)nc2cc(C)[nH]c2c1=O	> 100 µM			
CCc1ccc(C(O)CN2CCN(c3cccc(OC)c3)CC2)cc1 (stereo not given)	23.2 µM and 27.3 µM			
CC1CCc2nc(O)c(C(=O)NCCCN3CCN(C)CC3)cc2C1 (stereo not given)	31.6 µM and 37.1 µM			
COc1ccc(-c2ccnc3nc(N4CCCCC4)[nH]c(=O)c23)cc1	19.6 µM and 3.94 µM			
COC(=O)c1ccc(OC)c(Cn2cc(N)cn2)c1		> 50.1 µM	56.4 µM and 66 µM	
CCc1ccc(-c2cc(C(F)(F)F)nc(N3CCC(N)CC3)n2)cc1		> 50.1 µM	26.9 µM and 24.6 µM	pIC50 [4]: 5.409; IC50 [4]: 2.22 µM; pIC50 [5]: 5.997; IC50 ([5]; Plasmodium falciparum): 1.03 µM; IC50 [6]: 15.3 µM; IC50 [7]: 13 µM

SMILES	IC50 [1]	IC50 [2]	IC50 [3]	other results
O=C(c1ccc2c(c1)CCCC2)N1CCn2ncnc2C1		> 50.1 µM		IC50 [8]: > 30.2 µM
O=C(Cc1ccc(F)cc1)N1CCCC(c2n[nH]c3nccnc23)C1 (stereo not given)		> 50.1 µM		IC50 [9]: > 195 µM
CC(C)NC(=O)N1CCC(c2nnc3n2CCNC3)CC1		> 50.1 µM	14.9 µM and 14.8 µM	
Cn1nc2c(cc1=O)CN(CC1CCCCO1)CC2 (stereo not given)		> 50.1 µM	23.7 µM and 25 µM	
Cc1noc(C(C)Nc2ccc3oc(C)nc3c2)n1 (stereo not given)		> 50.1 µM	23.9 µM and 20.4 µM	
Cc1noc(C(C)Nc2ccc3oc(C(C)C)nc3c2)n1 (stereo not given)		> 50.1 µM	34.3 µM and 43.8 µM	
Cc1nnc(N2CCc3cncnc3C2)c(C#N)c1C		> 50.1 µM	21.4 µM and 27.5 µM	
Cn1nc2c(cc1=O)CN(c1ncnc3sccc13)CC2		> 50.1 µM	6.32 µM and 5.55 µM	IC50 [8]: > 30.2 µM; IC50 [4]: 9.58 µM
CCCn1nc2c(cc1=O)CN(c1ncnc3ccsc13)CC2		> 50.1 µM	43.5 µM and 33.5 µM	
Cc1nnc(NCC(c2ccco2)N2CCCC2)c(C#N)c1C (stereo not given)		> 50.1 µM	27.1 µM and 17.8 µM	
COc1ccc(N)c(N2CCN(C(C)=O)CC2)n1		> 50.1 µM	16.5 µM and 15.6 µM	
CC1(NC(=O)Cc2csc(NC(=O)c3ccccc3)n2)CCS(=O)(=O)C1 (stereo not given)	> 100 µM			
CC(C(=O)Nc1ccc(Cl)cn1)N1CCc2nn(C)c(=O)cc2C1 (stereo not given)		> 50.1 µM	19.9 µM and 23 µM	
COc1ncc(C)cc1NC(=O)COCC(F)(F)F		> 50.1 µM	25.3 µM and 19.4 µM	
Cn1cc(Br)cc(NC(=O)CC(C)(C)C)c1=O		> 50.1 µM	13.9 µM and 12 µM	
Cn1cc(Br)cc(NC(=O)CC2CCC2)c1=O		> 50.1 µM	> 100 µM	
COCCn1cc(NC(=O)NC(C)CCc2ccccc2)ccc1=O (stereo not given)		> 50.1 µM	3.09 µM and 3.5 µM	
Cc1cc(=O)n(C)cc1NC(=O)CC1CCC1		> 50.1 µM	7.56 µM and 7.2 µM	
COCCn1cc(NC(=O)C(C)CCc2ccccc2F)ccc1=O (stereo not given)		> 50.1 µM	3.96 µM and 4.01 µM	
Cn1nc2c(cc1=O)CN(c1ncnc3ccsc13)CC2		> 50.1 µM	14.1 µM and 17.4 µM	IC50 [4]: 6.44 µM
Oc1ccc(N(CCc2ccccc2)CCn2cncn2)cc1		> 50.1 µM	39.6 µM and 56.7 µM	
CN(Cc1ccco1)C(=O)Nc1ccc(=O)n(C)c1		> 50.1 µM	11.6 µM and 9.89 µM	
Cc1occc1CN(C)C(=O)Nc1ccc(=O)n(C)c1		> 50.1 µM	9.57 µM and 9.94 µM	
COc1ccsc1C(=O)Nc1cc(Cl)c(=O)n(C)c1		> 50.1 µM	12.3 µM and 10.6 µM	IC50 [8]: > 30.2 µM
COc1cc(F)c(S(=O)(=O)Nc2cnc(O)cc2C)cc1OC		> 50.1 µM	16.2 µM and 17.5 µM	
COCCn1cc(NCc2cn(C)nc2-c2ccncc2)cn1		> 50.1 µM	47.4 µM and 46.6 µM	

SMILES	IC50 [1]	IC50 [2]	IC50 [3]	other results
Cn1cccc(NC(=O)N2CCC(Cc3ccccc3)C2)c1=O (stereo not given)		> 50.1 µM	9.56 µM and 6.68 µM	
Cn1cccc(NC(=O)N2CCC(COCc3ccccc3)C2)c1=O (stereo not given)		> 50.1 µM	3.47 µM and 4.31 µM	
Cn1cnnc1C1CCN(c2cncc(-n3cccn3)n2)CC1		> 50.1 µM		IC50 [10]: > 50.1 µM; IC50 [11]: > 100 µM
COCCN(Cc1ccc(F)cc1Cl)C(=O)c1ccc(=O)[nH]n1		> 50.1 µM		Percent Effect [12]: -14.07%
CC(NC(=O)C1=NN(C)C(=O)CC1)c1ccc(Cl)cc1Cl (stereo not given)		> 50.1 µM		Percent Effect [12]: -38.06%
COCCc1ncc(-c2c(C#N)c(N)nc3c2CCc2[nH]ccc2-3)cn1		> 50.1 µM	6.54 µM and 5.62 µM	
Nc1nc(CC(=O)N2CCCC(CCc3cccc(F)c3)C2)cc(=O)[nH]1 (stereo not given)		> 50.1 µM	13.8 µM and 10 µM	
CCn1cc(CNc2ccc3nccnc3c2)cn1		> 50.1 µM	9.36 µM and 8.25 µM	
CCCOCC1CCN(C(=O)Cn2cccc(OC)c2=O)C1 (stereo not given)		> 50.1 µM	2.01 µM and 1.03 µM and 2.08 µM and 1.01 µM	
CCOCC1CCN(C(=O)C(c2ccccc2F)N(C)C)CC1 (stereo not given)		> 50.1 µM		IC50 [8]: > 30.2 µM; IC50 [6]: > 50.1 µM; IC50 [7]: > 50.1 µM
COc1ncc(-c2c(C#N)c(N)nc3c2CCc2[nH]ccc2-3)cn1		> 50.1 µM	8.08 µM and 5.62 µM	
Cc1ccc(S(=O)(=O)Nc2ccc(=O)n(C)c2)cc1		> 50.1 µM	24.8 µM and 32.1 µM	IC50 [10]: > 50.1 µM
CC(C)Cc1ccc(S(=O)(=O)Nc2ccc(=O)n(C)c2)cc1		> 50.1 µM	12.5 µM and 18.7 µM	
COCCCN1CCc2cncnc2C1		> 50.1 µM	29.5 µM and 38.3 µM	
Cc1cccc(-c2noc(CN3CCc4nn(C)c(=O)cc4C3)n2)c1		> 50.1 µM	9.38 µM and 11.6 µM	
CCCn1nc2c(cc1=O)CN(CCCS(N)(=O)=O)CC2		> 50.1 µM	31.6 µM and 50.9 µM	
Cc1ncc(CNCC(C)O)c2cc(C(=O)c3ccc(Br)cc3)oc12 (stereo not given)	> 100 µM			
O=C1CC(NCc2cnc(N3CCCC3)nc2)CN1c1ccccc1 (stereo not given)	> 100 µM			
CN(C[C@@H]1CCC[C@@H]2CN(c3ncccn3)C[C@@H]21)C1CC1	> 100 µM			
CCc1cnc(N2CC[C@H]3[C@@H]2CCC(=O)N3CC2CCOCC2)nc1	> 100 µM			
Cn1cc(C[C@H]2[C@H](N3CCOCC3)CCN2c2ncc(F)cn2)cn1	> 100 µM			
COc1cccc(CN2CCC3(CCN(c4ncc(C)cn4)CC3)C2)c1	> 100 µM			
O=C(c1ccco1)N1CCO[C@@H]2CN(c3ccccn3)CC[C@@H]2C1	> 100 µM			
Cc1ccc(NC(=O)c2nc3c(s2)CCCN3C(=O)C2CC2)cn1	> 100 µM			
CNC(=O)CNC1CC2(CCN(c3ncccn3)CC2)c2ccccc21 (stereo not given)	> 100 µM			
